# In ChEMBL document CHEMBL3885861, “Open TG-GATES”:
# Species: Rattus norvegicus
# Test: Open TG-GATES - Regimen: Daily Repeat
# Format: toxicity, organism-based, Sprague-Dawley
# Set-up: regimen Daily Repeat, gender Male, age 6 weeks
# Details: in vivo, po, 150 mg/kg, route gavage, dose level High; for APTT / Bas / Eos / Fbg / Hb / Ht / Lym / MCH / MCHC / MCV / Mono / Neu / PT / Plat / RBC / Ret / WBC: tissue Blood; for KIDNEY_L / KIDNEY_R / KIDNEY_TOTAL: tissue Kidney; for LIVER: tissue Liver; for A/G / ALP / ALT / AST / BUN / CRE / Ca / Cl / DBIL / GLC / IP / K / LDH / Na / PL / RALB / TBIL / TC / TG / TP / gamma-GTP: tissue Plasma
compound,measurement,setting,value
Nc1nc(N)c2nc(-c3ccccc3)c(N)nc2n1,TERMINAL_BW,"72 h, time 3 day",243.7 g
same,APTT,"72 h, time 3 day",16.1 s
same,Bas,"72 h, time 3 day",0%
same,Eos,"72 h, time 3 day",1%
same,Fbg,"72 h, time 3 day",366.6 mg/dL
same,Hb,"72 h, time 3 day",13.8 g/dL
same,Ht,"72 h, time 3 day",40.7%
same,Lym,"72 h, time 3 day",76.6%
same,MCH,"72 h, time 3 day",21 pg
same,MCHC,"72 h, time 3 day",33.8%
same,MCV,"72 h, time 3 day",62 fL
same,Mono,"72 h, time 3 day",2.8%
same,Neu,"72 h, time 3 day",18.8%
same,PT,"72 h, time 3 day",14 s
same,Plat,"72 h, time 3 day",131.8 x10_4/uL
same,RBC,"72 h, time 3 day",657.6 x10_4/ul
same,Ret,"72 h, time 3 day",5.1%
same,WBC,"72 h, time 3 day",90.9 x10_2/uL
same,KIDNEY_L,"72 h, time 3 day",1 g
same,KIDNEY_R,"72 h, time 3 day",1.1 g
same,KIDNEY_TOTAL,"72 h, time 3 day",2.1 g
same,LIVER,"72 h, time 3 day",11.3 g
same,A/G,"72 h, time 3 day",0.9
same,ALP,"72 h, time 3 day",1846.8 IU/L
same,ALT,"72 h, time 3 day",44 IU/L
same,AST,"72 h, time 3 day",67.2 IU/L
same,BUN,"72 h, time 3 day",17.6 mg/dL
same,CRE,"72 h, time 3 day",0.2 mg/dL
same,Ca,"72 h, time 3 day",11.1 mg/dL
same,Cl,"72 h, time 3 day",105.8 meq/L
same,DBIL,"72 h, time 3 day",0.008 mg/dL
same,GLC,"72 h, time 3 day",180.6 mg/dL
same,IP,"72 h, time 3 day",7.9 mg/dL
same,K,"72 h, time 3 day",3.9 meq/L
same,LDH,"72 h, time 3 day",59 IU/L
same,Na,"72 h, time 3 day",143.6 meq/L
same,PL,"72 h, time 3 day",171 mg/dL
same,RALB,"72 h, time 3 day",2.6 g/dL
same,TBIL,"72 h, time 3 day",0.032 mg/dL
same,TC,"72 h, time 3 day",90.6 mg/dL
same,TG,"72 h, time 3 day",120.8 mg/dL
same,TP,"72 h, time 3 day",5.6 g/dL
same,gamma-GTP,"72 h, time 3 day",1 IU/L
same,TERMINAL_BW,"[…], time 7 day",274.8 g
same,TERMINAL_BW,"[…], time 14 day",323.6 g
same,TERMINAL_BW,"[…], time 28 day",378.7 g
same,APTT,"[…], time 7 day",16.4 s
same,Bas,"[…], time 7 day",0.2%
same,Eos,"[…], time 7 day",1%
same,Fbg,"[…], time 7 day",354.2 mg/dL
same,Hb,"[…], time 7 day",13.5 g/dL
same,Ht,"[…], time 7 day",41.1%
same,Lym,"[…], time 7 day",78.2%
same,MCH,"[…], time 7 day",20.1 pg
same,MCHC,"[…], time 7 day",32.8%
same,MCV,"[…], time 7 day",61.2 fL
same,Mono,"[…], time 7 day",2.4%
same,Neu,"[…], time 7 day",18.2%
same,PT,"[…], time 7 day",14.1 s
same,Plat,"[…], time 7 day",132.7 x10_4/uL
same,RBC,"[…], time 7 day",672.4 x10_4/ul
same,Ret,"[…], time 7 day",5.4%
same,WBC,"[…], time 7 day",114.8 x10_2/uL
same,APTT,"[…], time 14 day",20.2 s
same,Bas,"[…], time 14 day",0%
same,Eos,"[…], time 14 day",1%
same,Fbg,"[…], time 14 day",329.6 mg/dL
same,Hb,"[…], time 14 day",14.2 g/dL
same,Ht,"[…], time 14 day",43.2%
same,Lym,"[…], time 14 day",77.4%
same,MCH,"[…], time 14 day",19.5 pg
same,MCHC,"[…], time 14 day",33%
same,MCV,"[…], time 14 day",59.1 fL
same,Mono,"[…], time 14 day",2.2%
same,Neu,"[…], time 14 day",18.8%
same,PT,"[…], time 14 day",13 s
same,Plat,"[…], time 14 day",113.5 x10_4/uL
same,RBC,"[…], time 14 day",730.6 x10_4/ul
same,Ret,"[…], time 14 day",3.3%
same,WBC,"[…], time 14 day",94.3 x10_2/uL
same,APTT,"[…], time 28 day",18.6 s
same,Bas,"[…], time 28 day",0.4%
same,Eos,"[…], time 28 day",1%
same,Fbg,"[…], time 28 day",320 mg/dL
same,Hb,"[…], time 28 day",15 g/dL
same,Ht,"[…], time 28 day",44.1%
same,Lym,"[…], time 28 day",78.8%
same,MCH,"[…], time 28 day",18.6 pg
same,MCHC,"[…], time 28 day",33.9%
same,MCV,"[…], time 28 day",54.9 fL
same,Mono,"[…], time 28 day",2.2%
same,Neu,"[…], time 28 day",16.8%
same,PT,"[…], time 28 day",13.3 s
same,Plat,"[…], time 28 day",127.8 x10_4/uL
same,RBC,"[…], time 28 day",803.2 x10_4/ul
same,Ret,"[…], time 28 day",2.1%
same,WBC,"[…], time 28 day",110.6 x10_2/uL
same,KIDNEY_L,"[…], time 7 day",1.3 g
same,KIDNEY_R,"[…], time 7 day",1.3 g
same,KIDNEY_TOTAL,"[…], time 7 day",2.6 g
same,KIDNEY_L,"[…], time 14 day",1.4 g
same,KIDNEY_R,"[…], time 14 day",1.4 g
same,KIDNEY_TOTAL,"[…], time 14 day",2.8 g
same,KIDNEY_L,"[…], time 28 day",1.7 g
same,KIDNEY_R,"[…], time 28 day",1.7 g
same,KIDNEY_TOTAL,"[…], time 28 day",3.4 g
same,LIVER,"[…], time 7 day",12.6 g
same,LIVER,"[…], time 14 day",13.2 g
same,LIVER,"[…], time 28 day",14.1 g
same,A/G,"[…], time 7 day",0.9
same,ALP,"[…], time 7 day",1286 IU/L
same,ALT,"[…], time 7 day",41.2 IU/L
same,AST,"[…], time 7 day",63.2 IU/L
same,BUN,"[…], time 7 day",18.8 mg/dL
same,CRE,"[…], time 7 day",0.2 mg/dL
same,Ca,"[…], time 7 day",11 mg/dL
same,Cl,"[…], time 7 day",104.2 meq/L
same,DBIL,"[…], time 7 day",0.014 mg/dL
same,GLC,"[…], time 7 day",188 mg/dL
same,IP,"[…], time 7 day",7.7 mg/dL
same,K,"[…], time 7 day",4 meq/L
same,LDH,"[…], time 7 day",62 IU/L
same,Na,"[…], time 7 day",143 meq/L
same,PL,"[…], time 7 day",149.6 mg/dL
same,RALB,"[…], time 7 day",2.6 g/dL
same,TBIL,"[…], time 7 day",0.072 mg/dL
same,TC,"[…], time 7 day",77 mg/dL
same,TG,"[…], time 7 day",126.8 mg/dL
same,TP,"[…], time 7 day",5.6 g/dL
same,gamma-GTP,"[…], time 7 day",1.2 IU/L
same,A/G,"[…], time 14 day",0.8
same,ALP,"[…], time 14 day",1273.4 IU/L
same,ALT,"[…], time 14 day",41.6 IU/L
same,AST,"[…], time 14 day",66.4 IU/L
same,BUN,"[…], time 14 day",21.4 mg/dL
same,CRE,"[…], time 14 day",0.3 mg/dL
same,Ca,"[…], time 14 day",10.4 mg/dL
same,Cl,"[…], time 14 day",105.8 meq/L
same,DBIL,"[…], time 14 day",0.012 mg/dL
same,GLC,"[…], time 14 day",185.2 mg/dL
same,IP,"[…], time 14 day",7.5 mg/dL
same,K,"[…], time 14 day",3.7 meq/L
same,LDH,"[…], time 14 day",58.2 IU/L
same,Na,"[…], time 14 day",145 meq/L
same,PL,"[…], time 14 day",143.2 mg/dL
same,RALB,"[…], time 14 day",2.7 g/dL
same,TBIL,"[…], time 14 day",0.07 mg/dL
same,TC,"[…], time 14 day",75 mg/dL
same,TG,"[…], time 14 day",101.6 mg/dL
same,TP,"[…], time 14 day",5.9 g/dL
same,gamma-GTP,"[…], time 14 day",1.2 IU/L
same,A/G,"[…], time 28 day",0.8
same,ALP,"[…], time 28 day",1120 IU/L
same,ALT,"[…], time 28 day",41.8 IU/L
same,AST,"[…], time 28 day",65.6 IU/L
same,BUN,"[…], time 28 day",21.4 mg/dL
same,CRE,"[…], time 28 day",0.3 mg/dL
same,Ca,"[…], time 28 day",10.7 mg/dL
same,Cl,"[…], time 28 day",106 meq/L
same,DBIL,"[…], time 28 day",0.008 mg/dL
same,GLC,"[…], time 28 day",178.2 mg/dL
same,IP,"[…], time 28 day",6.7 mg/dL
same,K,"[…], time 28 day",3.7 meq/L
same,LDH,"[…], time 28 day",44.6 IU/L
same,Na,"[…], time 28 day",144.8 meq/L
same,PL,"[…], time 28 day",160.4 mg/dL
same,RALB,"[…], time 28 day",2.7 g/dL
same,TBIL,"[…], time 28 day",0.064 mg/dL
same,TC,"[…], time 28 day",85.2 mg/dL
same,TG,"[…], time 28 day",106.2 mg/dL
same,TP,"[…], time 28 day",6.1 g/dL
same,gamma-GTP,"[…], time 28 day",1.4 IU/L
